Measured values published in US20250082654A1, “AZD3355 (LESOGABERAN) FOR TREATMENT AND PREVENTION OF NONALCOHOLIC STEATOHEPATITIS (NASH), LIVER FIBROSIS, AND OTHER LIVER CONDITIONS” (Icahn School of Medicine at Mount Sinai, priority 2018, published 2025).

Tests used:
[1] = tested on: LX-2 cells; experiment: Cell apoptosis assay (caspase-3/7 activity); format: cell-based, human; settings: any dosage, 72 hours
Experimental: (§1) At the beginning of each experiment, stellate cells (LX-2 cells or phHSCs) were serum-starved overnight in DMEM supplied with 0.1% BSA (without antibiotic) to synchronize metabolic activities of the cells. The cells were then exposed to different working concentration of either AZD3355 or sorafenib for 24, 48 and 72 hours.
(§2) 5,000 LX-2 cells or 10,000 phHSCs were plated per well in 96-well clear bottom black plates. After overnight serum starvation in DMEM supplemented with 0.1% BSA (without antibiotic) the cells were exposed to AZD3355 at indicated concentration. For positive apoptotic control the cells were treated with 3% DMSO. After 72 hours of drug exposure the fluorescence signal of Caspase-3 and -7 activities were measured in Synergy HT (BioTek Instrument Inc., VT) spectrofluorometer by using Apo-ONE Homogeneous Caspase-3/7 Assay kit (Promega, WI) according to manufacturer's protocol.

[2] = tested on: phHSCs; experiment: Cell apoptosis assay (caspase-3/7 activity); format: cell-based, human; settings: any dosage, 72 hours
Experimental: as §1, §2

## NC[C@@H](F)C[PH](=O)O [AZD3355, [(2R)-3-amino-2-fluoropropyl] phosphinic acid]
[1]
  apoptotic effect (caspase-3/7 activity): no apoptotic effect
[2]
  apoptotic effect (caspase-3/7 activity): no apoptotic effect
